According to patent publication US6559139B1, “Combination chemotherapy” (University of Pittsburgh of the Commonwealth System of …, priority 1997, dated 2003):

What was measured:
[1] = serum calcium levels in normal mice treated with 1,25D3 with or without zoledronate
Experimental: Normal C3H/HeJ mice were pretreated with 10 μg/kg body weight zoledronate and then treated with 0.25 μg 1,25D3 once a day for three days. Control animals received 1,25D3 alone, and one group of animals received only zoledronate. Following the last 1,25D3 treatment, blood was collected at 0, 24 and 48 hours from each mouse, and the serum calcium levels were measured.

[2] = test system: SCCVII/SF tumor; assay: in vivo excision clonogenic tumor cell survival assay; set-up: species or system C3H/HeJ mice; details: for enhancement of clonogenic cell kill: p<0.001 ANOVA
Experimental: The effect of 1,25D3 or Ro23-7553 alone and/or in combination with various cytotoxic agents on tumor cells in vivo was determined by a modification of the in vivo excision clonogenic tumor cell survival assay (Johnson et al., Cancer Chemother. Pharmacol., 32, 339-46 (1993)). Briefly, SCCVII/SF tumor bearing animals at 14 days post implantation were treated i.p. for 3 days with 1,25D3 or Ro23-7553 at either 0.5 mg/kg body weight/day or at varying doses of 0.03125-0.5 mg/kg body weight/day. […] After 24 hours, aliquots of minced tumor were enzymatically dissociated for 60 min at room temperature with a mixture of type I collagenase (37.5 mg/ml), DNAse (55 mg/ml) and EDTA (1%). Viable tumor cells (determined by trypan blue staining) were then plated at various dilutions. After 7 days incubation, colonies were counted, and numbers of clonogenic cells per gram of tumor were counted. The mean±standard deviation (SD) cell yield, cloning efficiency, and number of clonogenic cells for control (no treatment) tumors (n=40) averaged 139.4±38.2×10^6 viable tumor cells/g tumor, 27.0±0.56%, and 37.5±13.3×10^6 clonogenic tumor cells/g tumor, respectively. The surviving fraction per gram of tumor is defined as the number of clonogenic tumor cells per gram of treated tumor divided by the number of clonogenic tumor cells per gram of control (untreated) tumor. This assay is an accurate measure of in vivo anti-tumor activity; a surviving fraction less than 0.1 correlates with an actual decrease in tumor volume and an increase in tumor regrowth delay (Braunschweiger et al., Cancer Res., 48, 6011-16 (1988); Braunschweiger et al., Cancer Res., 51, 5454-60 (1991)).

[3] = hypercalcemia in treated SCCVII/SF tumor-bearing animals; format: in vivo, C3H/HeJ mice
[4] = test system: SCCVII/SF cells; assay: in vitro clonogenic assay; format: cell-based, murine; details: for enhancement of clonogenic cell kill: p<0.001 ANOVA
Experimental: The in vitro cytotoxicity of drug on tumor cells was determined via the in vitro clonogenic assay (McElwain et al., Mol. Cell. Diff., 3, 31-50 (1995)) with minor modifications as described herein. Briefly, murine SCCVII/SF cells were pre-treated with either 2 nM or 4 nM 1,25D3 or Ro23-7553. […] After 48 hours incubation with 1,25D3 or Ro23-7553, cells were treated for 2 hours with varying concentrations of cytotoxic agent, washed with RPMI 1640 plus FCS, and plated in various dilutions in 6-well tissue culture plates. Following a 7 day incubation at 37° C. in 5% CO2, monolayers were washed with saline, fixed with 100% methanol, and stained with 10% Giemsa; colonies were counted under light microscopy. The surviving fraction was calculated by dividing the cloning efficiency of treated cells by the cloning efficiency of untreated controls.

[5] = test system: MAPK; assay: Western Blot of phosphorylated MAPK and MAPK in SCC cells; format: cell-based; details: 10 nM 1,25D3, vs untreated cells
Experimental: (§1) SCC cells were treated in vitro with 10 nM 1,25D3, and untreated cells served as a control. The level of phosphorylated MAPK was assessed at 24 and 48 hours post treatment. Using Western Blot analysis, the amounts of MAPK, MEK (the kinase responsible for phosphorylating MAPK), MKP-1 (a MAPK-specific phosphatase), and growth factor receptors (EGF, PDGF, and IGF1 growth factor receptors) were assessed as well. Additionally, the activity level of MEK was assessed by quantitative in vitro kinase assays.

[6] = test system: SCCVII/SF cells; details: 24 hr, 48 hr and 7 day incubation times; cited from earlier work
[7] = test system: MEK; assay: Western Blot of MEK protein in SCC cells; format: cell-based; details: 10 nM 1,25D3; vs untreated cells
Experimental: as §1

[8] = test system: SCCVII/SF tumor; assay: tumor regrowth assay (delay of tumor growth); format: in vivo, C3H/HeJ mice; details: for fractional tumor volume: vs either agent alone; for Tumor Regrowth Delay: mean±SD of the difference in time for treated and control tumors to reach 4× pretreatment size, Ro23-7553 continuous, cisplatin 6 mg/kg i.p.
Experimental: SCCVII/SF tumor cells (5×10^5) were inoculated s.c. into the flank of the leg of C3H/HeJ mice. On day 9 post implantation, as the tumors were palpable (approximately 5×5 mm), animals were randomized for treatment with low dose i.p. […] After 7 days, 6 mg/kg body weight cytotoxic agent was injected i.p. Control animals received either treatment alone or no treatment. Control (no treatment) animals were given injection of vehicle (PBS) alone or sham pumps were implanted. Tumor growth was assessed by measuring the tumor diameter with calipers three times weekly. […] Post-treatment volumes were expressed as a fraction of pretreatment volume at the time of initial treatment. Tumor regrowth delay was calculated as the mean±standard deviation of the difference in time for treated and control tumor volumes to reach 4 times the pretreatment volume.

[9] = test system: MEK; assay: quantitative in vitro kinase assay of MEK activity; format: cell-based; details: 10 nM 1,25D3; vs untreated cells
Experimental: as §1

[10] = test system: MKP-1 (a MAPK-specific phosphatase); assay: Western Blot of MKP-1 in SCC cells; format: cell-based; details: 10 nM 1,25D3; vs untreated cells
Experimental: as §1

[11] = test system: EGF, PDGF, and IGF1 growth factor receptors; assay: Western Blot of growth factor receptors in SCC cells; format: cell-based; details: 10 nM 1,25D3; vs untreated cells
Experimental: as §1

[12] = clinical carboplatin / 1,25D3 schedule: carboplatin AUC and myelosuppression; format: in vivo, human; details: for mean AUC of carboplatin: dose calculated to achieve AUC=5, ±1.3
Experimental: Patients with malignant tumors were subject to a treatment regimen involving carboplatin and 1,25D3, but 48 hours prior to treatment, each patient was placed on a low calcium diet (250-300 mg/48 hr) and maintained on that diet for at least 7 days.
According to this regimen, each cycle lasts four weeks. For successive cycles, the dosage of 1,25D3 is increased by 30%. For the first two cycles, the patients were divided into two groups as follows:
Group 1. On day 1, this group of patients was given carboplatin (intravenously as a 30-minute infusion in 100 ml of carrier) at a dose calculated to achieve AUC=5. 24 hours later, a plasma sample was taken to determine carboplatin AUC, and the patients were placed on a three-day regimen of subcutaneous 1,25D3 per the schedule indicated in Table 2.
Group 2. On day 1, this group of patients was placed on a three-day regimen of subcutaneous 1,25D3. On day 3, the patients were given carboplatin at a dose calculated to achieve AUC=5. 24 hours later, a plasma sample was taken to determine carboplatin AUC.
Following the first cycle, the groups switched between pretreatment and post treatment. For the third and subsequent cycles in this treatment, the patients were placed on a three-day regimen of subcutaneous 1,25D3. On day 3, the patients were given carboplatin. at a dose calculated to achieve AUC=5. 24 hours later, a plasma sample was taken to determine carboplatin AUC.
Following the first two cycles, patients were assessed to determine the effect on carboplatin AUC by pretreatment vs. post treatment with 1,25D3.

Compound: C=C1/C(=C\C=C2/CCC[C@]3(C)[C@@H]([C@H](C)CCCC(C)(C)O)CC[C@@H]23)C[C@@H](O)C[C@@H]1O [1,25D3, 1,25-dihydroxycholecalciferol]
- serum calcium levels ([1]; 24 hours after last 1,25D3 treatment (0.25 μg once a day, three days)): 17.2 ± 1.1 mg/dL
- serum calcium levels ([1]; 48 hours after last 1,25D3 treatment (0.25 μg once a day, three days)): 16.5 ± 1.1 mg/dL
- enhancement of clonogenic cell kill ([2]; 1,25D3 0.2 μg/day i.p. 3 days, varying doses of paclitaxel on day 3, vs paclitaxel alone): significant enhancement of clonogenic cell kill
- enhancement of clonogenic cell kill ([2]; 1,25D3 0.5 mg/kg body weight/day i.p. 3 days, carboplatin 25-100 mg/kg on day 3, vs either alone): significant enhancement of clonogenic cell kill
- enhancement of clonogenic cell kill ([2]; 1,25D3 varying doses i.p. 3 days, carboplatin 50 mg/kg on day 3, vs carboplatin alone): significant enhancement of clonogenic cell even at the lowest doses of 1,25D3
- hypercalcemia ([3]; 1,25D3 0.2 μg/day 3 days with paclitaxel): No animals became hypercalcemic
- hypercalcemia ([3]; any of the 1,25D3 doses tested, with carboplatin 50 mg/kg): No animals became hypercalcemic
- enhancement of clonogenic cell kill over paclitaxel alone ([4]; concurrent administration of 1,25D3 and paclitaxel): did not result in an enhancement of clonogenic cell kill
- enhancement of clonogenic cell kill ([4]; pretreatment with 2 nM 1,25D3 for 48 hours, then carboplatin, vs carboplatin alone or concurrent): significantly enhanced clonogenic cell kill
- enhancement of clonogenic cell kill ([4]; pretreatment with 1,25D3, then paclitaxel): significantly enhanced clonogenic cell kill
- level of phosphorylated MAPK ([5]; 24 and 48 hours): less phosphorylated MAPK
- amount of MAPK protein [5]: not affected
- anti-proliferative effects [6]: anti-proliferative effects are observed
- amount of MEK protein [7]: slightly less MEK protein
- fractional tumor volume ([8]; 0.2 μg/mouse 1,25D3 continuously for two to eight days, then paclitaxel 40 mg/kg i.p.): significant decrease in fractional tumor volume
- MEK activity profile [9]: not significantly different
- amount of MKP-1 [10]: higher amounts of MKP-1
- amounts of EGF, PDGF, and IGF1 growth factor receptors [11]: significantly higher amounts

Compound: N.N.[Cl][Pt][Cl] [Cisplatin, cisplatin]
- Tumor Regrowth Delay [8]: 4.4 ± 0.3

Compound: C=C1/C(=C\C=C2/CCC[C@]3(C)C([C@H](C)CC#CC(C)(C)O)=CC[C@@H]23)C[C@@H](O)C[C@@H]1O [Ro23-7553, 1,25-dihydroxy-16-ene-23-yne-cholecalciferol]
- enhancement of clonogenic cell kill ([2]; Ro23-7553 0.5 mg/kg body weight/day i.p. 3 days, varying doses of cisplatin on day 3, vs cisplatin or Ro23-7553 alone): significant enhancement of clonogenic cell kill
- enhancement of cisplatin-mediated tumor cell kill ([2]; Ro23-7553 0.03125-0.5 mg/kg body weight/day 3 days, cisplatin 6 mg/kg on day 3, vs either alone, p<0.01 ANOVA): significantly enhancing cisplatin-mediated tumor cell kill even at the lowest doses tested
- hypercalcemia ([3]; any of the Ro23-7553 doses (0.03125-0.5 mg/kg/day, 3 days) with cisplatin): No animals in either experimental approach became hypercalcemic
- enhancement of clonogenic cell kill ([4]; pretreatment with 2 nM and 4 nM Ro23-7553, then 0.2-0.8 μg/ml cisplatin, vs cisplatin alone or concurrent administration): significantly enhanced clonogenic cell kill
- anti-proliferative effects [6]: anti-proliferative effects are observed
- fractional tumor volume ([8]; Ro23-7553 administered continuously, then cisplatin 6 mg/kg i.p., p<0.001 ANOVA): significant decrease in fractional tumor volume
- Tumor Regrowth Delay [8]: 1.8 ± 0.8

Compound: N.N.O=C([O-])C1(C(=O)[O-])CCC1.[Pt+2] [carboplatin]
- mean AUC of carboplatin ([12]; carboplatin D1): 7.8 µg·h/mL
- mean AUC of carboplatin ([12]; carboplatin D3): 6.7 µg·h/mL
- myleosuppression ([12]; carboplatin followed by adjunctive 1,25D3, each patient): consistently less
- AUC of carboplatin when pretreated with 1,25D3 vs carboplatin given first ([12]; each patient, first two cycles): higher in each patient

Compound: O=P(O)(O)C(O)(Cn1ccnc1)P(=O)(O)O [zoledronate]
- dehydration, piloerection, and cachexia attributable to hypercalcemia ([1]; vs control animals (1,25D3 alone)): less dehydration, piloerection, and cachexia
